Measured values: PMC11172478, “1,3,5-Triazine as Branching Connector for the Construction of Novel Antimicrobial Peptide Dendrimers: Synthesis and Biological Characterization” (International Journal of Molecular Sciences, 2024)
Residues, ends and D or L forms follow the SMILES beside them. *: point of attachment. βNA = c1ccc2cc(N*)ccc2c1

Assays:
E. coli 208691 = assay: Intracellular accumulation of acridine orange; format: cell-based; conditions: AO 0.25 µg/mL, 30 min
Protocol: (§1) The assay was performed as previously described by Armengol et al. including control and clinical strains (E. coli 208691 and P. aeruginosa 666 SJD) previously studied by our group. Briefly, 96-well flat-bottomed microtiter plates (Guangzhou Jet Bio-Filtration Co., Ltd., Mianyang, China) were used. Overnight cultures were diluted in 1/4 Ringer’s solution to an OD520nm of 1.5, and 100 µL was added to the wells previously filled with 100 µL of Ringer’s solution. Acridine Orange (AO) was added to a final concentration of 0.25 µg/mL. The inoculated plates were then incubated for 30 min with shaking, after which the fluorescence was measured in a FLUOstar OPTIMA fluorescence microplate reader (BMG Labtech, Ortenberg, Germany).
(§2) To determine the uptake and accumulation of AO by bacteria, different scenarios were compared. First, bacteria were examined in the presence of PAβN at 20 µg/mL, and then in the presence of different concentrations of the dendrimers at (MIC, ½ MIC, ¼ MIC). The results in each condition were expressed as the percentage increase in fluorescence with respect to the control.

P. aeruginosa ATCC 27853 [1] = assay: Intracellular accumulation of acridine orange; format: cell-based
Protocol: as §1, §2

P. aeruginosa 666 SJD = assay: Intracellular accumulation of acridine orange; format: cell-based; conditions: PaβN 20 µg/mL, AO 0.25 µg/mL, 30 min, fluorescence
Protocol: as §1, §2

P. aeruginosa ATCC 27853 [2] = format: cell-based; conditions: broth microdilution, MHBCA, 24 h, 37 °C, visual turbidity
Protocol: (§3) The antimicrobial activity of the dendrimers was evaluated against E. coli ATCC 25922, P. aeruginosa ATCC 27853 and S. aureus ATCC 29213 strains. The MIC values were determined by the broth microdilution method. Briefly, the different strains were grown in Muller Hinton broth cation adjusted (MHBCA) medium overnight at 37 °C with shaking at 200 rpm. The bacterial cultures were then adjusted to OD625nm of 0.08–0.1, and 5 μL of each diluted suspension was added to 96-well plates previously filled with MHBCA and serially diluted peptides. Plates were incubated for 24 h at 37 °C. Finally, the MIC was determined macroscopically, based on the visual turbidity of the wells.

S. aureus ATCC 29213 = format: cell-based; conditions: broth microdilution, MHBCA, 24 h, 37 °C, visual turbidity
Protocol: as §3

E. coli ATCC 25922 [3] = format: cell-based; conditions: broth microdilution, MHBCA, 24 h, 37 °C, visual turbidity
Protocol: as §3

P. aeruginosa ATCC 27853 [4] = assay: Bacterial growth curves; format: cell-based; conditions: P. aeruginosa ATCC 27853, TSB, MIC, ½ MIC and ¼ MIC, 24 h, 37 °C, OD 850 nm
Protocol: (§4) The real-time effect of the peptide dendrimers was examined on the growth curves of E. coli ATCC 25922 and P. aeruginosa ATCC 27853. Volumes of 10 mL of TSB liquid cultures containing 1–5 × 10^5 CFU/mL in the logarithmic phase were adjusted in Falcon tubes. Peptide dendrimers were then added at MIC and sub-inhibitory concentrations (½ MIC and ¼ MIC). Incubation was performed in RTS-1C real-time reverse spin bioreactors RTS-1 (Biosan) for 24 h at 37 °C and 2000 rpm. Growth was measured noninvasively as optical density (OD 850 nm) every 15 min.

E. coli ATCC 25922 [5] = assay: Atomic force microscopy of treated bacteria; format: cell-based; conditions: E. coli ATCC 25922, dendrimer at MIC, 4 h, 37 °C
Protocol: E. coli ATCC 25922 was grown at 37 °C in Mueller Hinton cation-adjusted broth to an optical density of 0.25 at 625 nm. Dendrimers were added to a starting inoculum of 10^6 CFU/mL and incubated for 4 h at 37 °C with shaking. Untreated E. coli was included as a control. Cells in 1 mL of culture were centrifuged at 5000 rpm for 5 min and washed three times with 1 mL of sterile water. The bacterial cells were then resuspended in 100 µL of sterile water and a 10 µL drop was applied to a freshly cleaved mica surface and allowed to dry for approximately 10 min at room temperature.
The disk surfaces were analyzed by atomic force microscopy using an AFM XE-70 (Park Systems, Suwon, Korea) in non-contact mode with an ACTA 10M cantilever. […] The AFM images were processed using a scanning probe image processor XEI (Park Systems), correcting the plane of the AFM image for any coupling of the lateral plane and the z-axis caused by the instrument.

E. coli ATCC 25922 [6] = format: cell-based
Protocol: as §4

P. aeruginosa ATCC 27853 [7] = assay: Time-kill curves; format: cell-based; conditions: P. aeruginosa ATCC 27853, ½ MIC
Protocol: The death kinetics of the active dendrimers were examined by plotting their time-kill curves against E. coli ATCC 25922 and P. aeruginosa ATCC 27853. The dendrimers were added to a starting bacterial inoculum of 10^6 CFU/mL in 5 mL of MHBCA medium. Dendrimers were tested at three different concentrations: MIC, ½ MIC and ¼ MIC. They were incubated for 24 h at 37 °C with shaking at 200 rpm. Samples were aseptically collected at 0, 1, 2, 4 and 6 h, serially diluted in Ringer ¼ and plated on Tryptone soy agar for colony counting.
The response of the microbial strains to the dendrimers was determined based on a logarithmic decrease in viable bacteria. A compound was considered active if it caused a reduction of ≥1 log10 CFU/mL, compared to the corresponding counts at time 0 h. In addition, a dendrimer was considered bactericidal if it caused a reduction of ≥3 log10 CFU/mL [40].

[8] = Black lipid bilayers conductance; conditions: DiPhPC/PS 4:1 in n-decane, 1 M KCl, −80, −120 and −180 mV
Protocol: The basic methods have been described previously. Membranes were prepared from 1% lipid a mixture of di-phytanoyl-phosphatidylcholine/di-phytanoylphosphatidylserine (DiPhPC/PS) in a molar ratio of 4:1 in n-decane (Avanti Polar Lipids, Delfzyl, The Netherlands). Bilayers were painted over a 2 mm^2 hole in a Teflon divider separating two compartments containing 5 mL each of a bathing solution of 1MKCl. Voltages were applied across the membrane via calomel electrodes connected by a salt bridge. The resultant current was amplified 10^8-fold by a current amplifier and recorded on a Rikadenski chart recorder. A concentration of 1 μg/mL of the dendrimer was used based on the results of Wu et al..

Row | Molecule | AO accumulation (untreated control = 100%) (E. coli 208691; E. coli 208691, PaβN 20 µg/mL, fluorescence) | changes in AO accumulation by susceptible strains (in words) (P. aeruginosa ATCC 27853 [1]; susceptible strains, PaβN 20 µg/mL) | AO accumulation (untreated control = 100%) (P. aeruginosa 666 SJD) | MIC P. aeruginosa ATCC 27853 (P. aeruginosa ATCC 27853 [2]) | MIC S. aureus ATCC 29213 (S. aureus ATCC 29213) | MIC E. coli ATCC 25922 (E. coli ATCC 25922 [3]) | effect on growth curve (in words) (P. aeruginosa ATCC 27853 [4]) | bacterial surface alteration by AFM (in words) (E. coli ATCC 25922 [5]) | effect on growth curve (in words) (E. coli ATCC 25922 [6]; E. coli ATCC 25922, TSB, MIC, ½ MIC and ¼ MIC, 24 h, 37 °C, OD 850 nm) | delay in the onset of detectable turbidity (E. coli ATCC 25922 [6]; E. coli ATCC 25922, at concentrations lower than ½ MIC) | prolongation of lag phase (E. coli ATCC 25922 [6]; E. coli ATCC 25922, at ¼ MIC) | concentration that completely inhibited detectable growth (E. coli ATCC 25922 [6]; E. coli ATCC 25922, growth curves, 24 h) | time-kill activity at ½ MIC (in words) (P. aeruginosa ATCC 27853 [7]) | channel formation in planar lipid bilayers (conductance) [8] | AO accumulation (in words) (E. coli 208691; E. coli 208691, dendrimers at MIC, ½ MIC, ¼ MIC) | AO accumulation (in words) (P. aeruginosa ATCC 27853 [1]; P. aeruginosa ATCC 27853, dendrimers at MIC)
1 | NC(N)=NCCC[C@H](NC(=O)[C@@H](N)Cc1ccccc1)C(=O)Nc1ccc2ccccc2c1 [PaβN, reference compound] (H-Phe-Arg-βNA) | ≥ 140% | almost negligible | ≥ 140% | – | – | – | – | – | – | – | – | – | – | – | – | –
2 | H-[(LK)3-EDA]4-(TA-EDA)2-TA-(LK)3-NH2 [Dendrimer 3] | – | – | – | 32 µg/mL | >64 µg/mL | 8 µg/mL | complete growth inhibition occurred at the MIC | significant surface damages | inhibited the growth at the MIC and ½ MIC | 10 h | 6 h | 4 µg/mL | higher antimicrobial activity than dendrimer 1 | did not induce membrane channels | increase in the AO accumulation with clear differences between the MIC, ½ MIC and ¼ MIC | slight increase in AO accumulation
